Source: the kinase profiling compilation of Christmann-Franck et al. (2016)

Legend:
Test in all cases: radiometric filter-binding kinase assay
[1] = test system: AKT1 (human), P31749 [S473D]
AURKA (human) = AURKA (human) (UniProt O14965)
BRSK1 (human) = BRSK1 (human) (UniProt Q8TDC3)
BRSK2 (human) = BRSK2 (human) (UniProt Q8IWQ3)
BTK (human) = BTK (human) (UniProt Q06187)
CaMK1 (human) = CaMK1 (human) (UniProt Q14012)
DYRK2 (human) = DYRK2 (human) (UniProt Q92630)
DYRK3 (human) = DYRK3 (human) (UniProt O43781)
EPHA2 (human) = EPHA2 (human) (UniProt P29317)
EPHB1 (human) = EPHB1 (human) (UniProt P54762)
EPHB2 (human) = EPHB2 (human) (UniProt P29323)
EPHB4 (human) = EPHB4 (human) (UniProt P54760)
FLT1 (human) = FLT1 (human) (UniProt P17948)
GCK (human) = GCK (human) (UniProt Q12851)
HIPK1 (human) = HIPK1 (human) (UniProt Q86Z02)
HIPK2 (human) = HIPK2 (human) (UniProt Q9H2X6)
HIPK2 (human), sequence (Q9H2X6 whole entry, looked up): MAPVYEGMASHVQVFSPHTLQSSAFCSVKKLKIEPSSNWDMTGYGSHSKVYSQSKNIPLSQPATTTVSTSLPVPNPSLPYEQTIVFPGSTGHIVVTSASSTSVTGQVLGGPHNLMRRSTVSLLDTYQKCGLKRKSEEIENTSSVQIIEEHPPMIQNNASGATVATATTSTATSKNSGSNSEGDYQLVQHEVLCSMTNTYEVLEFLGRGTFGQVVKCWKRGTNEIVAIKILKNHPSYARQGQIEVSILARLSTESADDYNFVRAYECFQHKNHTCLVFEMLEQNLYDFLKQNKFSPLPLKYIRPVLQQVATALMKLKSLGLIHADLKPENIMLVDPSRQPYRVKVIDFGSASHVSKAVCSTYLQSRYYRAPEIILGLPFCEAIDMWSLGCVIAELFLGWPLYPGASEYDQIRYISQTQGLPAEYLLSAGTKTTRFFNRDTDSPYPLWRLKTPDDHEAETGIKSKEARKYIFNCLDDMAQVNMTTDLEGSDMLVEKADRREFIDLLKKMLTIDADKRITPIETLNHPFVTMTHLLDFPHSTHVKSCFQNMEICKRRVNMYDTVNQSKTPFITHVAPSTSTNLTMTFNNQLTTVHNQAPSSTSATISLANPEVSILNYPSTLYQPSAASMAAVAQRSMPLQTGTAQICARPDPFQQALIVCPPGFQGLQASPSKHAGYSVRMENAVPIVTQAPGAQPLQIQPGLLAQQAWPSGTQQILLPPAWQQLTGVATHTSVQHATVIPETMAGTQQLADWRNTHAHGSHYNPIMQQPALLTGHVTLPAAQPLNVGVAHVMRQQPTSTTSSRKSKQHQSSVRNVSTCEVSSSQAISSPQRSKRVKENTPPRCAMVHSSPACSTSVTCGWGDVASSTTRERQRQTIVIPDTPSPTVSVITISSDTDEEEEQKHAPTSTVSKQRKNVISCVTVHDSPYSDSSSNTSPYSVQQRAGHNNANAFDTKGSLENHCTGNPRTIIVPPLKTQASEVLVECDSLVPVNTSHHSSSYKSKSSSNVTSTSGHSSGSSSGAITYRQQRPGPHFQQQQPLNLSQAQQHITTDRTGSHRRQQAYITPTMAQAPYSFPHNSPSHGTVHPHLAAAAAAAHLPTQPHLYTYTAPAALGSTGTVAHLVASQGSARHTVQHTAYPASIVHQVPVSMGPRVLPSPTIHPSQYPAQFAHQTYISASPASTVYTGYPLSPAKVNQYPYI

INSR (human) = INSR (human) (UniProt P06213)
JAK2 JH1 JH2 (human) = JAK2 JH1 JH2 (human) (UniProt O60674)
MAP2K1 (human) = MAP2K1 (human) (UniProt Q02750)
MAP3K1 (human) = MAP3K1 (human) (UniProt Q13233)
MAP3K1 (human), sequence (Q13233 whole entry, looked up): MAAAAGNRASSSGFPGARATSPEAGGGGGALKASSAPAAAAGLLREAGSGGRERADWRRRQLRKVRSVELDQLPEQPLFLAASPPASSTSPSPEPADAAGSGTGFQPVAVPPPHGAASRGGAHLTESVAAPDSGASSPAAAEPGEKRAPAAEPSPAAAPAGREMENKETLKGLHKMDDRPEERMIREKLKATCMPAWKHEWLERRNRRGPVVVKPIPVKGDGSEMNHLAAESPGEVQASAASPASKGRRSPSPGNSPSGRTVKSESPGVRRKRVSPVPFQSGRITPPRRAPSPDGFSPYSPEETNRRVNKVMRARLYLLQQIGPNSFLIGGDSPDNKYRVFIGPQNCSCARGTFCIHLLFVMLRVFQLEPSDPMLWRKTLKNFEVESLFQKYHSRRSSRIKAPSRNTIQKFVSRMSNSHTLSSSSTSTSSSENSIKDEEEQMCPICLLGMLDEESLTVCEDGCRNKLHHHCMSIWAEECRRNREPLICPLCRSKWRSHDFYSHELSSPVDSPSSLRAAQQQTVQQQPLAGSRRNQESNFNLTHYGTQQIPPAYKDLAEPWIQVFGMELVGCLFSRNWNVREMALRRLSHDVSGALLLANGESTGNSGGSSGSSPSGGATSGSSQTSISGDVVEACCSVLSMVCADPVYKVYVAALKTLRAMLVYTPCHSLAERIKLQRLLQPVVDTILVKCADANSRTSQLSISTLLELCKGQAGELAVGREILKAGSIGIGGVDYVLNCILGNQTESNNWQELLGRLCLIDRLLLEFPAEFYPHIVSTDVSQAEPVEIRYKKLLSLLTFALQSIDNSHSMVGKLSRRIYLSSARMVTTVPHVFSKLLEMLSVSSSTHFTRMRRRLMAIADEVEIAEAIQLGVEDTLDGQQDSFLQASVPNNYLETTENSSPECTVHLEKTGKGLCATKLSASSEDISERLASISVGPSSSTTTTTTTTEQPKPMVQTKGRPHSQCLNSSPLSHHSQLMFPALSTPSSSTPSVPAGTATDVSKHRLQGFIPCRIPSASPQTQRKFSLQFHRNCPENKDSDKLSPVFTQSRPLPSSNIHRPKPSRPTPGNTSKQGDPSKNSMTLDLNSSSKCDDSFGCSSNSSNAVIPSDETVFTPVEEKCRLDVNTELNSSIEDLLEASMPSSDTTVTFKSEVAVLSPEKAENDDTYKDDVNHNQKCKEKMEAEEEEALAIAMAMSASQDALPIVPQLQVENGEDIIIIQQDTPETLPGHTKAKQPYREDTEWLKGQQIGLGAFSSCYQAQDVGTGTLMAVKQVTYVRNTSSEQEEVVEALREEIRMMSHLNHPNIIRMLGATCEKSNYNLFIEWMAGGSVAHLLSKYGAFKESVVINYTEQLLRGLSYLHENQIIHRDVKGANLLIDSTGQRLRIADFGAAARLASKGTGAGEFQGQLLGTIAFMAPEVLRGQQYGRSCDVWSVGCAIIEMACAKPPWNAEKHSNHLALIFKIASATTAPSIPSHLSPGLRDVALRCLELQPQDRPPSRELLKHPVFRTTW

MAP3K11 (human) = MAP3K11 (human) (UniProt Q16584)
MAP3K5 (human) = MAP3K5 (human) (UniProt Q99683)
MAPK10 (human) = MAPK10 (human) (UniProt P53779)
MAPK11 (human) = MAPK11 (human) (UniProt Q15759)
MAPK8 (human) = MAPK8 (human) (UniProt P45983)
MAPK9 (human) = MAPK9 (human) (UniProt P45984)
MAPKAPK5 (human) = MAPKAPK5 (human) (UniProt Q8IW41)
MARK3 (human) = MARK3 (human) (UniProt P27448)
PIM1 (human) = PIM1 (human) (UniProt P11309)
PIM1 (human), sequence (P11309 whole entry, looked up): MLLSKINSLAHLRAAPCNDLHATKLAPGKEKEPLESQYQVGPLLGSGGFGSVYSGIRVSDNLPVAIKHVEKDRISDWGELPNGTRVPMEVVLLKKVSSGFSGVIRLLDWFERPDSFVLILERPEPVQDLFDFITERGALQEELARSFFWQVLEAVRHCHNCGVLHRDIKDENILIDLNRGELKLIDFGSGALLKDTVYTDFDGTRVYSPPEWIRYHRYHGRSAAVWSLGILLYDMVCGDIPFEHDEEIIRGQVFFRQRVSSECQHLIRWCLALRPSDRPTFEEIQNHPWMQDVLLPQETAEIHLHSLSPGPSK

PRKCA (human) = PRKCA (human) (UniProt P17252)
[2] = test system: RPS6KB1 (human), P23443 [T412E]
RPS6KB1 (human), P23443 [T412E], sequence (P23443 whole entry T412E, looked up): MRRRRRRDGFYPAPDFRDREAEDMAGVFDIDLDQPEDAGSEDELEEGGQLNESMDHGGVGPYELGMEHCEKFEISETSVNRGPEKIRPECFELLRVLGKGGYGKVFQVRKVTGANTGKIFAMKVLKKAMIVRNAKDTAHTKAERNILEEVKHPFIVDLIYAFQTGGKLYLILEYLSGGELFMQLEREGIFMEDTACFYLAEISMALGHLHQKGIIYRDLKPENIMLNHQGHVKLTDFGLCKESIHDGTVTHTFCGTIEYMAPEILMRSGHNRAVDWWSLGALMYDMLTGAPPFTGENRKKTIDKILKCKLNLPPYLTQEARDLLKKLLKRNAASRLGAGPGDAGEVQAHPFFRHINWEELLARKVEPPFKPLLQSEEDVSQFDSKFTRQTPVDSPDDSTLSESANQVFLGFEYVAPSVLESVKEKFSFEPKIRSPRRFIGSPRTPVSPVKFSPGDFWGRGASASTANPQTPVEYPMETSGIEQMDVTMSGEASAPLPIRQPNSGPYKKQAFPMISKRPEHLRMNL

STK3 (human) = STK3 (human) (UniProt Q13188)
STK3 (human), sequence (Q13188 whole entry, looked up): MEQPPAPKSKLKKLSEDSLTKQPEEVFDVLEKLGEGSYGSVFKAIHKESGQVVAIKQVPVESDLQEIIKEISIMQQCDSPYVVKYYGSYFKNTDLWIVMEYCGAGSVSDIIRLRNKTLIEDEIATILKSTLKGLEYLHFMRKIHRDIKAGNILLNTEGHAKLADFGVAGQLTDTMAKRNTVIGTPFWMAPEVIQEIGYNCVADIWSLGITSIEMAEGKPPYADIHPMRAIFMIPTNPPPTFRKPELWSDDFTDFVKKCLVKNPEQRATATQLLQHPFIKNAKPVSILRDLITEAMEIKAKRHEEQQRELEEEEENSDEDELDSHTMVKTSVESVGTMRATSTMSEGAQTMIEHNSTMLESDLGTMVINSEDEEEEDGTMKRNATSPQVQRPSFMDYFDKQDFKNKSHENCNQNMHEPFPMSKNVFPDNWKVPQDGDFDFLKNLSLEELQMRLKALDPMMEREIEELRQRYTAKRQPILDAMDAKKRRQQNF

SYK (human) = SYK (human) (UniProt P43405)
TAOK1 (human) = TAOK1 (human) (UniProt Q7L7X3)
TBK1 (human) = TBK1 (human) (UniProt Q9UHD2)
YES1 (human) = YES1 (human) (UniProt P07947)

CaMK1 (human), sequence (Q14012 whole entry, looked up): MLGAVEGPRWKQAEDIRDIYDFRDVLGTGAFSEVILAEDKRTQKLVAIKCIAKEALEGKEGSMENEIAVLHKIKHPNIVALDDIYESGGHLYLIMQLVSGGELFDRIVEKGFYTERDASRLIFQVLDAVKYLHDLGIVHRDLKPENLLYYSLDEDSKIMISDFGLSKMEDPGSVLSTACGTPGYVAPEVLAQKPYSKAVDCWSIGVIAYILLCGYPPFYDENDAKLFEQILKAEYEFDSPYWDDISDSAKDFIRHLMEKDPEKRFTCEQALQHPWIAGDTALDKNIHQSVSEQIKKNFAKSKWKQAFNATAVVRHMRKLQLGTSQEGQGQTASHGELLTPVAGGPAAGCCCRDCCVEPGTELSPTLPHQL
DYRK2 (human), sequence (Q92630 whole entry, looked up): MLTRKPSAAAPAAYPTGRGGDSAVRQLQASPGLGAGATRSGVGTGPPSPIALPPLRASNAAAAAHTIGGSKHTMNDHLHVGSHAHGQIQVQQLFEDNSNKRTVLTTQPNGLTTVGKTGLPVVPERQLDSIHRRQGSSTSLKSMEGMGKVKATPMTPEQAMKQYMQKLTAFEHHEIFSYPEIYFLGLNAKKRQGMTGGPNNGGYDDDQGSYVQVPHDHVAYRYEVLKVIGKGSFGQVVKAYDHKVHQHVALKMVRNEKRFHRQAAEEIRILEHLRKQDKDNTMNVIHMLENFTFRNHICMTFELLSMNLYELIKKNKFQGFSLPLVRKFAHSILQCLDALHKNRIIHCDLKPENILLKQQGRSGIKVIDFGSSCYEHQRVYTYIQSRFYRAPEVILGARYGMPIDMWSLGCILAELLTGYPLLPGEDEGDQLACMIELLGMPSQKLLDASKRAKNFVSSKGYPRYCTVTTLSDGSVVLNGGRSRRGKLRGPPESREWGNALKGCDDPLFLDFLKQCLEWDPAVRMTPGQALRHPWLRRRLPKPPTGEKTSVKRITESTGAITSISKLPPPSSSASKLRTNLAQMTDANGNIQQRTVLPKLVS

## NC(=O)c1ccc(-c2ccc(Oc3cncc4sc(-c5nn[nH]n5)cc34)cc2)cc1
[1]; compound 1.0 µM
  residual activity: 96%
[1]; compound 10.0 µM
  residual activity: 78%
AURKA (human); compound 1.0 µM
  residual activity: 103%
AURKA (human); compound 10.0 µM
  residual activity: 78%
BRSK1 (human); compound 1.0 µM
  residual activity: 110%
BRSK1 (human); compound 10.0 µM
  residual activity: 90%
BRSK2 (human); compound 1.0 µM
  residual activity: 92%
BRSK2 (human); compound 10.0 µM
  residual activity: 95%
BTK (human); compound 1.0 µM
  residual activity: 95%
BTK (human); compound 10.0 µM
  residual activity: 71%
CaMK1 (human); compound 1.0 µM
  residual activity: 105%
CaMK1 (human); compound 10.0 µM
  residual activity: 85%
DYRK2 (human); compound 1.0 µM
  residual activity: 7%
DYRK2 (human); compound 10.0 µM
  residual activity: 2%
DYRK3 (human); compound 1.0 µM
  residual activity: 15%
DYRK3 (human); compound 10.0 µM
  residual activity: 6%
EPHA2 (human); compound 1.0 µM
  residual activity: 94%
EPHA2 (human); compound 10.0 µM
  residual activity: 89%
EPHB1 (human); compound 1.0 µM
  residual activity: 95%
EPHB1 (human); compound 10.0 µM
  residual activity: 107%
EPHB2 (human); compound 1.0 µM
  residual activity: 106%
EPHB2 (human); compound 10.0 µM
  residual activity: 99%
EPHB4 (human); compound 1.0 µM
  residual activity: 97%
EPHB4 (human); compound 10.0 µM
  residual activity: 96%
FLT1 (human); compound 1.0 µM
  residual activity: 84%
FLT1 (human); compound 10.0 µM
  residual activity: 24%
GCK (human); compound 1.0 µM
  residual activity: 78%
GCK (human); compound 10.0 µM
  residual activity: 13%
HIPK1 (human); compound 1.0 µM
  residual activity: 104%
HIPK1 (human); compound 10.0 µM
  residual activity: 9%
HIPK2 (human); compound 1.0 µM
  residual activity: 64%
HIPK2 (human); compound 10.0 µM
  residual activity: 10%
INSR (human); compound 1.0 µM
  residual activity: 111%
INSR (human); compound 10.0 µM
  residual activity: 108%
JAK2 JH1 JH2 (human); compound 1.0 µM
  residual activity: 97%
JAK2 JH1 JH2 (human); compound 10.0 µM
  residual activity: 74%
MAP2K1 (human); compound 1.0 µM
  residual activity: 85%
MAP2K1 (human); compound 10.0 µM
  residual activity: 78%
MAP3K1 (human); compound 1.0 µM
  residual activity: 99%
MAP3K1 (human); compound 10.0 µM
  residual activity: 51%
MAP3K11 (human); compound 1.0 µM
  residual activity: 81%
MAP3K11 (human); compound 10.0 µM
  residual activity: 25%
MAP3K5 (human); compound 1.0 µM
  residual activity: 104%
MAP3K5 (human); compound 10.0 µM
  residual activity: 112%
MAPK10 (human); compound 1.0 µM
  residual activity: 105%
MAPK10 (human); compound 10.0 µM
  residual activity: 72%
MAPK11 (human); compound 1.0 µM
  residual activity: 97%
MAPK11 (human); compound 10.0 µM
  residual activity: 104%
MAPK8 (human); compound 1.0 µM
  residual activity: 93%
MAPK8 (human); compound 10.0 µM
  residual activity: 77%
MAPK9 (human); compound 1.0 µM
  residual activity: 99%
MAPK9 (human); compound 10.0 µM
  residual activity: 85%
MAPKAPK5 (human); compound 1.0 µM
  residual activity: 104%
MAPKAPK5 (human); compound 10.0 µM
  residual activity: 56%
MARK3 (human); compound 1.0 µM
  residual activity: 94%
MARK3 (human); compound 10.0 µM
  residual activity: 71%
PIM1 (human); compound 1.0 µM
  residual activity: 70%
PIM1 (human); compound 10.0 µM
  residual activity: 18%
PRKCA (human); compound 1.0 µM
  residual activity: 76%
PRKCA (human); compound 10.0 µM
  residual activity: 30%
[2]; compound 1.0 µM
  residual activity: 96%
[2]; compound 10.0 µM
  residual activity: 64%
STK3 (human); compound 1.0 µM
  residual activity: 98%
STK3 (human); compound 10.0 µM
  residual activity: 75%
SYK (human); compound 1.0 µM
  residual activity: 107%
SYK (human); compound 10.0 µM
  residual activity: 95%
TAOK1 (human); compound 1.0 µM
  residual activity: 82%
TAOK1 (human); compound 10.0 µM
  residual activity: 36%
TBK1 (human); compound 1.0 µM
  residual activity: 87%
TBK1 (human); compound 10.0 µM
  residual activity: 63%
YES1 (human); compound 1.0 µM
  residual activity: 91%
YES1 (human); compound 10.0 µM
  residual activity: 87%
